Reference: PubChem BioAssay (NCI)
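Cultured in 96-well plates, cells were exposed to test compound for 48 hours across five concentrations. TGI is the concentration that stops growth completely.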

Experiments:
Test in all cases: NCI tumour cell line growth inhibition, 48 h
[1] = tested on: 786-0 renal
[2] = tested on: A498 renal
[3] = tested on: ACHN renal
[4] = tested on: BT-549 breast
[5] = tested on: CAKI-1 renal
[6] = tested on: COLO 205 colon
[7] = tested on: DU-145 prostate
[8] = tested on: EKVX NSCLC
[9] = tested on: HCC-2998 colon
[10] = tested on: HCT-116 colon
[11] = tested on: HCT-15 colon
[12] = tested on: HL-60(TB) leukemia
[13] = tested on: HOP-62 NSCLC
[14] = tested on: HOP-92 NSCLC
[15] = tested on: HS 578T breast
[16] = tested on: IGROV1 ovarian
[17] = tested on: K-562 leukemia
[18] = tested on: LOX IMVI melanoma
[19] = tested on: M14 melanoma
[20] = tested on: MALME-3M melanoma
[21] = tested on: MCF7 breast
[22] = tested on: MDA-MB-231 breast
[23] = tested on: MDA-MB-435
[24] = tested on: MDA-N
[25] = tested on: MOLT-4 leukemia
[26] = tested on: NCI-H226 lung
[27] = tested on: NCI-H23 lung
[28] = tested on: NCI-H460 lung
[29] = tested on: NCI-H522 lung
[30] = tested on: NCI/ADR-RES ovarian
[31] = tested on: OVCAR-3 ovarian
[32] = tested on: OVCAR-4 ovarian
[33] = tested on: OVCAR-5 ovarian
[34] = tested on: OVCAR-8 ovarian
[35] = tested on: PC-3 prostate
[36] = tested on: RPMI-8226 leukemia
[37] = tested on: RXF 393 renal
[38] = tested on: SF-268 CNS
[39] = tested on: SF-295 CNS
[40] = tested on: SF-539 CNS
[41] = tested on: SK-MEL-2 melanoma
[42] = tested on: SK-MEL-28 melanoma
[43] = tested on: SK-OV-3 ovarian
[44] = tested on: SN12C renal
[45] = tested on: SNB-19 CNS
[46] = tested on: SNB-75 CNS
[47] = tested on: SR leukemia
[48] = tested on: T-47D breast
[49] = tested on: U251 CNS
[50] = tested on: UACC-257 melanoma
[51] = tested on: UO-31 renal
[52] = tested on: A549 NSCLC
[53] = tested on: CCRF-CEM leukemia
[54] = tested on: HT29 colon
[55] = tested on: KM12 colon
[56] = tested on: SK-MEL-5 melanoma
[57] = tested on: SW-620 colon
[58] = tested on: TK-10 renal
[59] = tested on: UACC-62 melanoma

Measured: TGI

O=[N+]([O-])c1ccc2c(c1)c1nn2CCCCOc2nn(c3ccc([N+](=O)[O-])cc23)CCCCO1
not listed: [52] | [53] | [54] | [55] | [56] | [57] | [58] | [59]
> 100 µM: all other assays above

N#Cc1c(N)c2c(c(-c3ccccc3)c1-c1ccccc1)C(=O)N(N)C2=O
not listed: [2] | [13] | [18]
> 100 µM: all other assays above

COc1cc(C(=O)O)ccc1OS(=O)(=O)O
not listed: [2]
> 100 µM: all other assays above
